Experiments:
human GPR40 receptor = human GPR40 receptor (Homo sapiens, UniProt O14842); experiment: IP1 accumulation measurements using the IPOne assay system; assay type: cell-based; settings: 1321N1 cells stably expressing human GPR40 receptor; stimulated 1 h at 37° C.
Method: IP1 is assayed according to the manufacturers description (Cisbio Bioassays, France). In brief, the assay is started by substitution of the culture medium by stimulation buffer (Hepes 10 mM, CaCl2 1 mM, MgCl2 0.5 mM, KCl 4.2 mM, NaCl 146 mM, glucose 5.5 mM and LiCl 50 mM, pH 7.4). Cells are stimulated for 1 h at 37° C., 5% CO2 by addition of the compounds that are diluted in stimulation buffer containing LiCl. Assays are stopped by adding HTRF-conjugates (IP1-d2 and Anti-IP1 cryptate Tb) and lysis buffer, provided by the manufacturer. After an incubation time of 1 h at room temperature plates are measured using an EnVision™, Perkin Elmer. The obtained fluorescence ratios at 665/615 […] are then used to calculate the pEC50 values using Assay Explorer 3.3 Software (Accelrys, Inc.) by interpolation using an IP1 reference curve and subsequent sigmoidal curve fitting allowing for a variable hill slope.

[1] = Aqueous solubility (buffer vs acetonitrile/water, LC-UV); assay type: physicochemical; settings: kinetic from dmso stock, buffer pH 6.8, 24 h of shaking, DMSO concentration of 2.5%
Method: The aqueous solubility of the compounds of the invention is determined by comparing the amount dissolved in buffer to the amount in an acetonitrile/water (1/1) solution. Starting from a 10 mM DMSO stock solution aliquots are diluted with acetonitrile/water (1/1) or buffer, respectively. After 24 h of shaking, the solutions are filtrated and analyzed by LC-UV. The amount dissolved in buffer is compared to the amount in the acetonitrile solution. Solubility is usually being measured from 0.001 to 0.125 mg/mL at a DMSO concentration of 2.5%. If more than 90% of the compound is dissolved in buffer, the value is marked with “>”.

Chain of human GPR40 receptor (O14842 whole entry): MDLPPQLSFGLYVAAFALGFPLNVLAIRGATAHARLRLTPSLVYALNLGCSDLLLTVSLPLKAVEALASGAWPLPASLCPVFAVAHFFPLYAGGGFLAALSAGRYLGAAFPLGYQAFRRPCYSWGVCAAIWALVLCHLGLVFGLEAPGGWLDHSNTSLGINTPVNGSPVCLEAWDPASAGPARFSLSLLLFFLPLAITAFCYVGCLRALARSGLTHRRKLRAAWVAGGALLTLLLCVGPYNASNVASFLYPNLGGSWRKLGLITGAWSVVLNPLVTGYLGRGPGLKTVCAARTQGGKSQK

Row | Structure (SMILES) | EC50 (human GPR40 receptor) | solubility at 24 h [1]
1 | COc1ccc(-c2ccc(-c3cc(CNc4cnc([C@H]5C[C@@H]5C(=O)O)cn4)c(F)cc3F)cc2)nn1 [Example 7, (1S,2S)-2-(5-{[4,6-Difluoro-4′-(6-methoxy-pyridazin-3-yl)-biphenyl-3-ylmethyl]-amino}-pyrazin-2-yl)-cyclopropanecarboxylic acid] | 38 nM | –
2 | O=C(O)C1CC1c1cnc(NCc2cc(-c3ccccc3C(F)(F)F)ccc2F)cn1 (stereo not drawn) [Example 40] | 51 nM | –
3 | O=C(O)C1CC1c1cnc(NCc2cc(-c3c(F)cc(OC4CC4)cc3F)ccc2F)cn1 (stereo not drawn) [Example 54] | 11 nM | –
4 | Cc1cc(-c2cc(=O)n(C)cn2)cc(C)c1-c1ccc(F)c(CNc2cnc(C3CC3C(=O)O)cn2)c1 (stereo not drawn) [Example 21] | 21 nM | –
5 | Cc1ccc(Cl)c(-c2ccc(F)c(CNc3cnc(C4CC4C(=O)O)cn3)c2)c1Cl (stereo not drawn) [Example 41] | 723 nM | –
6 | Cc1cc(OC2CCOC2)cc(C)c1-c1ccc(F)c(CNc2cnc(C3CC3C(=O)O)cn2)c1 (stereo not drawn) [Example 42] | 28 nM | –
7 | O=C(O)C1CC1c1cnc(NCc2cc(-c3ccc(-c4cnco4)cc3)ccc2F)cn1 (stereo not drawn) [Example 56] | 177 nM | –
8 | Cc1cc(OC2CCOCC2)cc(C)c1-c1ccc(F)c(CNc2cnc(C3CC3C(=O)O)cn2)c1 (stereo not drawn) [Example 20] | 22 nM | –
9 | Cc1cc(OCC(C)(C)O)cc(C)c1-c1ccc(F)c(CNc2cnc(C3CC3C(=O)O)cn2)c1 (stereo not drawn) [Example 11] | 18 nM | –
10 | COc1cc(F)c(-c2ccc(F)c(CNc3cnc(C4CC4C(=O)O)cn3)c2)c(F)c1 (stereo not drawn) [Example 58] | 896 nM | –
11 | O=C(O)[C@H]1C[C@@H]1c1cnc(NCc2ccc(C(F)(F)F)c(-c3ccc(OCC4CC4)cc3)c2)cn1 [Example 3, (1S,2S)-2-{5-[(4′-Cyclopropylmethoxy-6-trifluoromethyl-biphenyl-3-ylmethyl)-amino]-pyrazin-2-yl}-cyclopropanecarboxylic acid] | 28 nM | –
12 | COc1cc(-c2cc(C)c(-c3ccc(F)c(CNc4cnc(C5CC5C(=O)O)cn4)c3)c(C)c2)ccn1 (stereo not drawn) [Example 31] | 5 nM | –
13 | Cc1cc(-c2ccn(C)c(=O)c2)cc(C)c1-c1ccc(F)c(CNc2cnc(C3CC3C(=O)O)cn2)c1 (stereo not drawn) [Example 22] | 14 nM | –
14 | COc1ccc(-c2ccc(-c3cc(CNc4cnc([C@H]5C[C@@H]5C(=O)O)cn4)c(F)cc3F)cc2)nc1 [Example 6, (1S,2S)-2-(5-{[4,6-Difluoro-4′-(5-methoxy-pyridin-2-yl)-biphenyl-3-ylmethyl]-amino}-pyrazin-2-yl)-cyclopropanecarboxylic acid] | 19 nM | –
15 | Cc1cc(OCC(C)(C)C#N)cc(C)c1-c1ccc(F)c(CNc2cnc(C3CC3C(=O)O)cn2)c1 (stereo not drawn) [Example 24] | 34 nM | –
16 | Cc1cc(C(=O)N(C)C)cc(C)c1-c1ccc(F)c(CNc2cnc(C3CC3C(=O)O)cn2)c1 (stereo not drawn) [Example 14] | 34 nM | –
17 | Nc1cc(F)c(-c2ccc(F)c(CNc3cnc(C4CC4C(=O)O)cn3)c2)c(F)c1 (stereo not drawn) [Example 55] | 189 nM | –
18 | COc1cc(OC)c(F)c(-c2ccc(F)c(CNc3cnc(C4CC4C(=O)O)cn3)c2)c1F (stereo not drawn) [Example 37] | 47 nM | –
19 | O=C(O)[C@H]1C[C@@H]1c1cnc(NCc2cc(-c3ccc(O)c(Cl)c3)c(F)cc2F)cn1 [Example 9, (1S,2S)-2-{5-[(3′-Choro-4,6-difluoro-4′-hydroxy-biphenyl-3-ylmethyl)-amino]-pyrazin-2-yl}-cyclopropanecarboxylic acid] | 596 nM | –
20 | Cc1cc(OCC2CCCO2)cc(C)c1-c1ccc(F)c(CNc2cnc(C3CC3C(=O)O)cn2)c1 (mixture of isomers) [Example 44] | 1920 nM | –
21 | O=C(O)C1CC1c1cnc(NCc2cc(-c3c(F)cc(F)cc3F)ccc2F)cn1 (stereo not drawn) [Example 45] | 34 nM | –
22 | Cc1cc(OCC2(O)CCSCC2)cc(C)c1-c1ccc(F)c(CNc2cnc(C3CC3C(=O)O)cn2)c1 (stereo not drawn) [Example 30] | 28 nM | –
23 | Cc1cc(CO)cc(C)c1-c1ccc(F)c(CNc2cnc(C3CC3C(=O)O)cn2)c1 (stereo not drawn) [Example 39] | 4280 nM | –
24 | Cc1cc(OCC2CCOCC2)cc(C)c1-c1ccc(F)c(CNc2cnc(C3CC3C(=O)O)cn2)c1 (stereo not drawn) [Example 18] | 14 nM | –
25 | CCc1cccc(CC)c1-c1ccc(F)c(CNc2cnc(C3CC3C(=O)O)cn2)c1 (stereo not drawn) [Example 36] | 4 nM | –
26 | Cc1cc(OCC2(C)COC2)cc(C)c1-c1ccc(F)c(CNc2cnc(C3CC3C(=O)O)cn2)c1 (stereo not drawn) [Example 33] | 147 nM | –

Row | Structure (SMILES) | EC50 (human GPR40 receptor) | solubility at 24 h [1]
27 | Cc1nc(-c2ccc(-c3ccc(F)c(CNc4cnc(C5CC5C(=O)O)cn4)c3)cc2)cs1 (stereo not drawn) [Example 32] | 20 nM | –
28 | Cc1cc(OCCC(C)(C)O)cc(C)c1-c1cc(CNc2cnc([C@H]3C[C@@H]3C(=O)O)cn2)ccc1C(F)(F)F [Example 5, (1S,2S)-2-(5-{[4′-(3-Hydroxy-3-methyl-butoxy)-2′,6′-dimethyl-6-trifluoromethyl-biphenyl-3-ylmethyl]-amino}-pyrazin-2-yl)-cyclopropanecarboxylic acid] | 310 nM | –
29 | COc1c(F)cc(-c2cc(CNc3cnc([C@H]4C[C@@H]4C(=O)O)cn3)c(F)cc2F)cc1F [Example 10, (1S,2S)-2-{5-[(4,6,3′,5′-Tetrafluoro-4′-methoxy-biphenyl-3-ylmethyl)-amino]-pyrazin-2-yl}-cyclopropanecarboxylic acid] | 53 nM | –
30 | Cc1cc(OCC(=O)O)cc(C)c1-c1ccc(F)c(CNc2cnc(C3CC3C(=O)O)cn2)c1 (stereo not drawn) [Example 34] | 104 nM | –
31 | CC(C)c1ccccc1-c1ccc(F)c(CNc2cnc(C3CC3C(=O)O)cn2)c1 (stereo not drawn) [Example 17] | 154 nM | –
32 | Cc1cc(N)ccc1-c1cc(CNc2cnc([C@H]3C[C@@H]3C(=O)O)cn2)c(F)cc1F [Example 8, (1S,2S)-2-{5-[(4′-Amino-4,6-difluoro-2′-methyl-biphenyl-3-ylmethyl)-amino]-pyrazin-2-yl}-cyclopropanecarboxylic acid] | 126 nM | –
33 | Cc1cc(C(=O)O)cc(C)c1-c1ccc(F)c(CNc2cnc(C3CC3C(=O)O)cn2)c1 (stereo not drawn) [Example 15] | 24 nM | –
34 | Cc1cc(-c2nnn(CC(C)(C)O)n2)cc(C)c1-c1ccc(F)c(CNc2cnc(C3CC3C(=O)O)cn2)c1 (stereo not drawn) [Example 28] | 7 nM | –
35 | O=C(O)[C@H]1C[C@@H]1c1cnc(NCc2ccc(C(F)(F)F)c(-c3ccc(OC(F)(F)F)cc3)c2)cn1 [Example 4, (1S,2S)-2-{5-[(4′-Trifluoromethoxy-6-trifluoromethyl-biphenyl-3-ylmethyl)-amino]-pyrazin-2-yl}-cyclopropanecarboxylic acid] | 9 nM | –
36 | CNC(=O)c1cc(C)c(-c2ccc(F)c(CNc3cnc(C4CC4C(=O)O)cn3)c2)c(C)c1 (stereo not drawn) [Example 13] | 224 nM | –
37 | O=C(O)C1CC1c1cnc(NCc2cc(-c3c(F)cccc3F)ccc2F)cn1 (stereo not drawn) [Example 47] | 579 nM | –
38 | Cc1cc(OCCC(C)(C)O)cc(C)c1-c1ccc(F)c2c1CC[C@H]2Oc1ccc([C@H]2C[C@@H]2C(=O)O)cc1 [Example 17 in WO 2013/178575, reference compound] | – | < 1 µg/mL
39 | O=C(O)C1CC1c1cnc(NCc2cc(-c3c(Cl)cccc3Cl)ccc2F)cn1 (stereo not drawn) [Example 46] | 6 nM | –
40 | Cc1cc(-c2ccc(=O)n(C)c2)cc(C)c1-c1ccc(F)c(CNc2cnc(C3CC3C(=O)O)cn2)c1 (stereo not drawn) [Example 16] | 21 nM | –
41 | Cc1cc(OCCCS(C)(=O)=O)cc(C)c1-c1cccc(CNc2cnc([C@H]3C[C@@H]3C(=O)O)cn2)c1 [Example 1, (1S,2S)-2-(5-{[4′-(3-Methanesulfonyl-propoxy)-2′,6′-dimethyl-biphenyl-3-ylmethyl]-amino}-pyrazin-2-yl)-cyclopropanecarboxylic acid] | 36 nM | –
42 | N#CC1(c2ccccc2-c2ccc(F)c(CNc3cnc(C4CC4C(=O)O)cn3)c2)CC1 (stereo not drawn) [Example 51] | 51 nM | –
43 | Cc1cc(C(N)=O)cc(C)c1-c1ccc(F)c(CNc2cnc(C3CC3C(=O)O)cn2)c1 (stereo not drawn) [Example 49] | 10 nM | –
44 | Cc1cccc(C)c1-c1ccc(F)c(CNc2cnc(C3CC3C(=O)O)cn2)c1 (stereo not drawn) [Example 59] | 24 nM | –
45 | COc1cc(OC)c(-c2ccc(F)c(CNc3cnc(C4CC4C(=O)O)cn3)c2)c(OC)c1 (stereo not drawn) [Example 53] | 887 nM | –
46 | COc1cc(C)c(-c2ccc(F)c(CNc3cnc(C4CC4C(=O)O)cn3)c2)c(C)c1 (stereo not drawn) [Example 48] | 24 nM | –
47 | COc1cc(OC)c(Cl)c(-c2ccc(F)c(CNc3cnc(C4CC4C(=O)O)cn3)c2)c1Cl (stereo not drawn) [Example 50] | 1390 nM | –
48 | N#Cc1cccc(C#N)c1-c1ccc(F)c(CNc2cnc(C3CC3C(=O)O)cn2)c1 (stereo not drawn) [Example 57] | > 10000 nM | –
49 | CC(C)(O)CCOc1ccc(-c2cc(CNc3cnc([C@H]4C[C@@H]4C(=O)O)cn3)ccc2C(F)(F)F)cc1 [Example 2, (1S,2S)-2-(5-{[4′-(3-Hydroxy-3-methyl-butoxy)-6-trifluoromethyl-biphenyl-3-ylmethyl]-amino}-pyrazin-2-yl)-cyclopropanecarboxylic acid] | 6 nM | –
50 | Cc1cc(OCC2(O)CCOCC2)cc(C)c1-c1ccc(F)c(CNc2cnc(C3CC3C(=O)O)cn2)c1 (stereo not drawn) [Example 29] | 68 nM | –
51 | Cc1cc(OCC2(O)CCS(=O)(=O)CC2)cc(C)c1-c1ccc(F)c(CNc2cnc(C3CC3C(=O)O)cn2)c1 (stereo not drawn) [Example 12] | 100 nM | –

Reference: patent publication US10793530B2, “Benzylaminopyrazinylcyclopropanecarboxylic acids, pharmaceutical compositions and uses thereof” (Boehringer Ingelheim International GmbH, priority 2017, dated 2020)
